The numbers were not newly measured in patent US20100120733A1, “STEROID MODULATORS OF GLUCOCORTICOID RECEPTOR” (AUSPEX PHARMACEUTICALS, INC., priority 2008, published 2010), which cites them from elsewhere.

The conditions of this data set: pooled data.

As to `CC(C)C(=O)OCC(=O)[C@@]12O[C@H](C3CCCCC3)O[C@@H]1C[C@H]1[C@@H]3CCC4=CC(=O)C=C[C@]4(C)[C@H]3[C@@H](O)C[C@@]12C` [ciclesonide, 16,17-[[(R)-cyclohexylmethylene]bis(oxy)]-11-hydroxy-21-(2-methyl-1-oxopropoxy)-(11-beta,16-alpha)-pregna-1,4-diene-3,20-dione], the elimination half-life was 0.71 h.
With `C[C@]12C=CC(=O)C=C1CC[C@@H]1[C@@H]2[C@@H](O)C[C@@]2(C)[C@H]1C[C@H]1O[C@@H](C3CCCCC3)O[C@]12C(=O)CO` [des-CIC, desisobutyryl-ciclesonide], the elimination half-life is 3.5 h.
